According to PubChem BioAssay AID1963422 (Molecular Pharmacology Branch, DTP, NCI, 2024):
Several values for one entry are separate records, joined by “and”; a condition that tells them apart may be missing. Equal entries are not always repeated.

Test system: 463943-066-T-J2-PDC complex spheroid growth
Test: Anticancer human tumor 463943-066-T-J2-PDC patient-derived colon adenocarcinoma cell line growth inhibition [Asc]
Conditions: for viability, T/C: stronger effect = lower value
How it was run: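 Spheroid model: tumor line + HUVEC + hMSC. Single agents and combinations; top conc. at/near clinical Cmax (10 microM if undetermined), half-log dilutions. DMSO stocks at 800-fold test concentration.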
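Further: compound exposure lasted 7 days.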
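Wherever viability, T/C is given: 100% = DMSO vehicle control wells.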

**Q.** Which results are given for `Cn1ncnc1[C@H]1c2n[nH]c(=O)c3cc(F)cc(c23)N[C@@H]1c1ccc(F)cc1` + CNC(C)C(=O)NC1CN(S(=O)(=O)c2cccc(S(=O)(=O)N3CCC4CCC(C(=O)NC(c5ccccc5)c5ccccc5)N4C(=O)C(NC(=O)C(C)NC)C3)c2)CCC2CCC(C(=O)NC(c3ccccc3)c3ccccc3)N2C1=O?
**A.** IC50 (curve of first compound, second compound 0.00316 µM): > 100 nM; IC50 (curve of first compound, second compound 0.01 µM): > 100 nM; IC50 (curve of first compound, second compound 0.0316 µM): > 100 nM; IC50 (curve of first compound, second compound 0.1 µM): > 100 nM; IC50 (curve of first compound, second compound 0.316 µM): > 100 nM; IC50 (curve of first compound, second compound 1 µM): > 100 nM; viability, T/C (second compound 0.00316 µM, first compound 0.000316 µM): 92.7%; viability, T/C (second compound 0.00316 µM, first compound 0.001 µM): 91.4%; viability, T/C (second compound 0.00316 µM, first compound 0.00316 µM): 94.3%; viability, T/C (second compound 0.00316 µM, first compound 0.01 µM): 94%; viability, T/C (second compound 0.00316 µM, first compound 0.0316 µM): 101%; viability, T/C (second compound 0.00316 µM, first compound 0.1 µM): 92.4%; viability, T/C (second compound 0.01 µM, first compound 0.000316 µM): 92.4%; viability, T/C (second compound 0.01 µM, first compound 0.001 µM): 89.9%; viability, T/C (second compound 0.01 µM, first compound 0.00316 µM): 94.3%; viability, T/C (second compound 0.01 µM, first compound 0.01 µM): 94.8%; viability, T/C (second compound 0.01 µM, first compound 0.0316 µM): 97.3%; viability, T/C (second compound 0.01 µM, first compound 0.1 µM): 87.2%; viability, T/C (second compound 0.0316 µM, first compound 0.000316 µM): 91.6%; viability, T/C (second compound 0.0316 µM, first compound 0.001 µM): 97.8%; viability, T/C (second compound 0.0316 µM, first compound 0.00316 µM): 99.2%; viability, T/C (second compound 0.0316 µM, first compound 0.01 µM): 94%; viability, T/C (second compound 0.0316 µM, first compound 0.0316 µM): 103%; viability, T/C (second compound 0.0316 µM, first compound 0.1 µM): 85.6%; viability, T/C (second compound 0.1 µM, first compound 0.000316 µM): 104%; viability, T/C (second compound 0.1 µM, first compound 0.001 µM): 93.9%; viability, T/C (second compound 0.1 µM, first compound 0.00316 µM): 100%; viability, T/C (second compound 0.1 µM, first compound 0.01 µM): 91.9%; viability, T/C (second compound 0.1 µM, first compound 0.0316 µM): 105%; viability, T/C (second compound 0.1 µM, first compound 0.1 µM): 93.9%; viability, T/C (second compound 0.316 µM, first compound 0.000316 µM): 98.3%; viability, T/C (second compound 0.316 µM, first compound 0.001 µM): 93%; viability, T/C (second compound 0.316 µM, first compound 0.00316 µM): 89.4%; viability, T/C (second compound 0.316 µM, first compound 0.01 µM): 93%; viability, T/C (second compound 0.316 µM, first compound 0.0316 µM): 99.7%; viability, T/C (second compound 0.316 µM, first compound 0.1 µM): 85.4%; viability, T/C (second compound 1 µM, first compound 0.000316 µM): 89.9%; viability, T/C (second compound 1 µM, first compound 0.001 µM): 86.8%; viability, T/C (second compound 1 µM, first compound 0.00316 µM): 84.2%; viability, T/C (second compound 1 µM, first compound 0.01 µM): 87.5%; viability, T/C (second compound 1 µM, first compound 0.0316 µM): 80.8%; viability, T/C (second compound 1 µM, first compound 0.1 µM): 83.2%

**Q.** With `CCN1CCN(Cc2ccc(Nc3ncc(F)c(-c4cc(F)c5nc(C)n(C(C)C)c5c4)n3)nc2)CC1` as the compound, how does the viability, T/C (compound 0.00316 µM) read?
**A.** The viability, T/C was 102% and 101% and 107%.

**Q.** What about the viability, T/C (compound 0.01 µM) of the same compound?
**A.** Its viability, T/C is 99.4% and 93.9% and 78.5%.

**Q.** And the viability, T/C (compound 0.0316 µM)?
**A.** The viability, T/C was 100% and 108% and 97.6%.

**Q.** And the viability, T/C (compound 0.1 µM)?
**A.** Its viability, T/C is 98.9% and 96% and 104%.

**Q.** What about the viability, T/C (compound 0.316 µM) of the same compound?
**A.** The viability, T/C was 113% and 108% and 115%.

**Q.** What about the viability, T/C (compound 1 µM) of the same compound?
**A.** Its viability, T/C is 119% and 120% and 125%.

**Q.** And the IC50 (curve of compound)?
**A.** The IC50 was over 1000 nM.

**Q.** What does the source list for `COc1c(OCCCN2CCOCC2)ccc2c3n(c(=NC(=O)c4cnc(N)nc4)nc12)CCN3`?
**A.** viability, T/C (compound 0.00316 µM): 94.5% and 96.1%; viability, T/C (compound 0.01 µM): 90.6% and 82%; viability, T/C (compound 0.0316 µM): 77.9% and 77.5%; viability, T/C (compound 0.1 µM): 65.9% and 65.1%; viability, T/C (compound 0.316 µM): 59% and 58.9%; viability, T/C (compound 1 µM): 41.5% and 44.9%; IC50 (curve of compound): 524 nM and 659 nM

**Q.** `O=C(c1ccc(F)c(F)c1Nc1ccc(I)cc1F)N1CC(O)([C@@H]2CCCCN2)C1` was tested. Which viability, T/C (compound 0.00316 µM) did it give?
**A.** The viability, T/C was 88.3% and 95.1% and 104%.

**Q.** And the viability, T/C (compound 0.01 µM)?
**A.** The viability, T/C was 79.2% and 78% (2×).

**Q.** And the viability, T/C (compound 0.0316 µM)?
**A.** The viability, T/C was 71.1% and 60.7% and 77.5%.

**Q.** And the viability, T/C (compound 0.1 µM)?
**A.** The viability, T/C was 57.1% and 58.9% and 75.6%.

**Q.** And the viability, T/C (compound 0.316 µM)?
**A.** Its viability, T/C is 39.7% and 42% and 51.9%.

**Q.** What about the viability, T/C (compound 1 µM) of the same compound?
**A.** The viability, T/C was 29% and 29.9% and 35.8%.

**Q.** And the IC50 (curve of compound)?
**A.** The IC50 was 159 nM and 140 nM and 397 nM.

**Q.** With `C=C(F)C(=O)N1CCN(c2nc(OCC3CCCN3C)nc3c2CCN(c2cccc4cccc(Cl)c24)C3)CC1CC#N` (stereo not given) as the compound, how does the viability, T/C (compound 0.0316 µM) read?
**A.** Its viability, T/C is 98.4% and 102%.

**Q.** What about the viability, T/C (compound 0.1 µM) of the same compound?
**A.** The viability, T/C was 102% and 94.9%.

**Q.** What about the viability, T/C (compound 0.316 µM) of the same compound?
**A.** The viability, T/C was 102%.

**Q.** What about the viability, T/C (compound 1 µM) of the same compound?
**A.** Its viability, T/C is 109% and 106%.

**Q.** What about the viability, T/C (compound 3.16 µM) of the same compound?
**A.** Its viability, T/C is 95.6%.

**Q.** And the viability, T/C (compound 10 µM)?
**A.** The viability, T/C was 18.6% and 29.3%.

**Q.** What about the IC50 (curve of compound) of the same compound?
**A.** The IC50 was 6270 nM and 7000 nM.
